Broadly, the inhibition is the share of the control response that was lost under treatment.

The text below walks through data of US10336707B2, “Heterocyclic derivatives modulating activity of certain protein kinases” (EUDENDRON S.R.L., priority 2014, dated 2019).

SMILES strings stand for the structures. Where two headings read alike, the source gives them in different places.

For experiment [1], the target named is T1, BaF3 cell line transfected with the oncogenic fusion protein NPM-ALK and expressing the mutation L1196M (Homo sapiens, UniProt Q9UM73, L1196M, cells depend on it).
T1 construct: fused on or other part: P06748 (Nucleophosmin)
Nature of the experiment: Tritiated thymidine uptake cell proliferation assay, BaF3 NPM-ALK L1196M. In kind it is cell-based, murine. As to conditions: for GI50: averaged IC50 values of cell proliferation inhibition, class letters, read-out: IC50 BaF3 NPM-ALK L1196M cells; for % Inhibition BaF3 NPM-ALK L1196M cells: percentage of inhibition of cell proliferation at 200 nM. As for the experimental part:
(§1) Method: Tritiated Thymidine Uptake Cell Proliferation Assay
(§2) The following procedure was used with parent untransformed BaF3 cells, BaF3 cells transformed with the oncogenic fusion protein NPM/ALK, NPM/ALK positive SUDHL-1 cells, NPM/ALK positive SUPM2, ALK-negative HL60 cells, NPM/ALK positive KARPAS-299 cells. The parent untransformed BaF3 cells or Alk-negative HL60 cells are used as controls. Cells were seeded in U-bottomed 96-well plates at 10000 cells/well in a volume of 100 μl in supplemented medium. In the case of the parent untransformed BaF3 cells, the medium was supplemented with IL-3. Serial dilutions of inhibitors were added to the appropriate wells and volumes adjusted to 200 μl. Controls were treated with the equivalent volume of vehicle, DMSO, alone. Plates were incubated at 37° C. for 72 h. 3[H]-thymidine (1 μCi/well) was added for the last 16 h of incubation. Cells were harvested on to paper filters and 3[H]-thymidine incorporation was measured using a scintillation counter (1430 MicroBeta, Wallac, Turku, Finland). The 50% inhibitory concentration (IC50) was defined as the concentration of inhibitor, expressed in nanomolar units, that gave a 50% decrease in 3[H]-thymidine uptake compared with controls.
In Table 2 are listed results for selected examples of compounds of the invention, reported as percentage of inhibition of cell proliferation at 200 nM, obtained from cellular assays in BaF3 cell line transfected with the oncogenic fusion protein NPM-ALK and expressing the mutation L1196M.
In Table 3 are listed averaged IC50 values of cell proliferation inhibition for selected examples of compounds of the present invention, obtained from cellular assays in BaF3 cell line transfected with the oncogenic fusion protein NPM-ALK and expressing the mutation L1196M. The letter “A” designates an IC50 value between 1 nM and 50 nM, the letter “B” designates an IC50 value between 50 nM and 100 nM, the letter “C” designates an IC50 value between 100 and 500 nM.

In experiment [2] the test system is Karpas 299 lymphoma cell line positive for the oncogenic fusion protein NPM-ALK. The experiment is described as follows: Tritiated thymidine uptake cell proliferation assay, Karpas 299. The experiment is classed as cell-based. Particulars: Homo sapiens. As for the experimental part: as §1, §2
In Table 1 are listed results for selected examples of compounds of the invention, reported as percentage of inhibition of cell proliferation at 200 nM, obtained from cellular assays in Karpas 299 lymphoma cell line positive for the oncogenic fusion protein NPM-ALK.

Where [3] appears, read: KARPAS-299, percentage of inhibition of cell proliferation at 200 nM, read-out: % Inhibition Karpas 299 cells.

T1 sequence (Q9UM73 whole entry L1196M, the tested form may be a part): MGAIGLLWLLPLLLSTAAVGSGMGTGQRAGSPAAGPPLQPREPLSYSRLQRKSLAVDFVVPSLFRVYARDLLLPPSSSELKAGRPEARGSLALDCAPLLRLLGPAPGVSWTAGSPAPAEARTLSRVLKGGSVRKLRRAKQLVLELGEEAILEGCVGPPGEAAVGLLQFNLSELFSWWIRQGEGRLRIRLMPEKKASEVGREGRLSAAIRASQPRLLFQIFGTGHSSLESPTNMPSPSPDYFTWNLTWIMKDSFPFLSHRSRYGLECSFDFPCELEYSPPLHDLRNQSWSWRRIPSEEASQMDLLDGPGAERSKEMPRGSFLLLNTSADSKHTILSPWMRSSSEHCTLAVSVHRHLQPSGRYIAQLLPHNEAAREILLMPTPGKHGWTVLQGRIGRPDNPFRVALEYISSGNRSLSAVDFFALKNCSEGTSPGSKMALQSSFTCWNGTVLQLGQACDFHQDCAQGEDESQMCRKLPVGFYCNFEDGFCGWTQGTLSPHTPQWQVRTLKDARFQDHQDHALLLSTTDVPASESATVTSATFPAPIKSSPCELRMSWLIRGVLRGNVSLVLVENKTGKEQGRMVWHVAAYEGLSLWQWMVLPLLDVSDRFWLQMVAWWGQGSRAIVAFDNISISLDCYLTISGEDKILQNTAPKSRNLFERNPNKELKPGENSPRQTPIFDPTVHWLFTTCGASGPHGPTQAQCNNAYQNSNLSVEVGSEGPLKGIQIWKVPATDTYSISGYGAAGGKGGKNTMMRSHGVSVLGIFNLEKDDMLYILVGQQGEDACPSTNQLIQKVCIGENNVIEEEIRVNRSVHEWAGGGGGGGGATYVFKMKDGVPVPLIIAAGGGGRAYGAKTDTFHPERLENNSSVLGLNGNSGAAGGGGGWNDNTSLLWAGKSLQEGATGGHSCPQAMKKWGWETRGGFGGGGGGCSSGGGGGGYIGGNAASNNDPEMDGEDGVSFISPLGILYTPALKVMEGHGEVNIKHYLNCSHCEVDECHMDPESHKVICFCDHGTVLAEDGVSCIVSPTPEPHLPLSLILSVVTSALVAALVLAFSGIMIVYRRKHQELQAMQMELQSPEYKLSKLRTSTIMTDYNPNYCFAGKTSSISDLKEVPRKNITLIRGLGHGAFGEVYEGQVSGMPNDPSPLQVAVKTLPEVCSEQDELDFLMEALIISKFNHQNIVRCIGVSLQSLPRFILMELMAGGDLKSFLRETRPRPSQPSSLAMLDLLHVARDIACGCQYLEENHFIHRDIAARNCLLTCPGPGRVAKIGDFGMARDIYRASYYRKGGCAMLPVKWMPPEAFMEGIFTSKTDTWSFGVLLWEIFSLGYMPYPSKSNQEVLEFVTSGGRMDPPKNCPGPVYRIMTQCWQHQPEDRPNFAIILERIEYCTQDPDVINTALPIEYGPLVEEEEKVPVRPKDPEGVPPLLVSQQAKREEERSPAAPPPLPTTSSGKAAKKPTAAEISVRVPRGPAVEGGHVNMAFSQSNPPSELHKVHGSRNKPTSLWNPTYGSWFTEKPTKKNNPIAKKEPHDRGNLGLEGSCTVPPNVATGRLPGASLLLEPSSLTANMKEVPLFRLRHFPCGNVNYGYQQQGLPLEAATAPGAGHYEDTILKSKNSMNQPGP

Regarding `CN1CCN(c2ccc(C(=O)Nc3n[nH]c4cc(-c5ccc(O)c(F)c5)c(Cc5cc(F)cc(F)c5)cc34)c(NC3CCOCC3)c2)CC1` [Example 25, N-[5-[(3,5-difluorophenyl)methyl]-6-(3-fluoro-4-hydroxy-phenyl)-1H-indazol-3-yl]-4-(4-methylpiperazin-1-yl)-2-(tetrahydropyran-4-ylamino)benzamide], in experiment [1], the GI50 was 1 to 50 nM and the “% Inhibition BaF3 NPM-ALK L1196M cells” value is on record as 100%. Also, the inhibition at 0.2 µM in experiment [2] (setting [3]) is 100%.

Turning to `CN1CCN(c2ccc(C(=O)Nc3n[nH]c4cc(-c5cc(O)ccc5F)c(Cc5cc(F)cc(F)c5)cc34)c(NC3CCOCC3)c2)CC1` [Example 8, N-[5-[(3,5-difluorophenyl)methyl]-6-(2-fluoro-5-hydroxy-phenyl)-1H-indazol-3-yl]-4-(4-methylpiperazin-1-yl)-2-(tetrahydropyran-4-ylamino)benzamide], in experiment [1], the GI50 lay within 1 to 50 nM and the “% Inhibition BaF3 NPM-ALK L1196M cells” value is 99%. Besides, the inhibition at 0.2 µM in experiment [2] (setting [3]) stood at 99%.

On to `CN1CCN(c2ccc(C(=O)Nc3n[nH]c4cc(-c5ccc(O)cc5F)c(Cc5cc(F)cc(F)c5)cc34)c(NC3CCOCC3)c2)CC1` [Example 6, N-[5-[(3,5-difluorophenyl)methyl]-6-(2-fluoro-4-hydroxy-phenyl)-1H-indazol-3-yl]-4-(4-methylpiperazin-1-yl)-2-(tetrahydropyran-4-ylamino)benzamide], for which, in experiment [1], the GI50 lay in the range of 1 to 50 nM and the “% Inhibition BaF3 NPM-ALK L1196M cells” value worked out at 100%. Besides, the inhibition at 0.2 µM in experiment [2] (setting [3]) is 100%.

For the compound `CN1CCN(c2ccc(C(=O)Nc3n[nH]c4cc(-c5ccc(O)cc5)c(Cc5cccc(F)c5)cc34)c(NC3CCOCC3)c2)CC1` [Example 38, N-[5-[(3-fluorophenyl)methyl]-6-(4-hydroxyphenyl)-1H-indazol-3-yl]-4-(4-methylpiperazin-1-yl)-2-(tetrahydropyran-4-ylamino)benzamide], in experiment [1], the GI50 was in the range of 1 to 50 nM and the “% Inhibition BaF3 NPM-ALK L1196M cells” value was found to be 100%. Also, the inhibition at 0.2 µM in experiment [2] (KARPAS-299, read-out: % Inhibition Karpas 299 cells) worked out at 100%.
